Experimental data taken from patent US20230293630A1, “Coronavirus T Cell Epitopes and Uses Thereof” (priority 2020, published 2023).
Where “and” joins values, the source holds several entries; their conditions need not be identical. Equal values may be shown once. Read-outs that look alike come from different tables or passages of the source.

Tests used:
[1] = tested on: SARS-CoV-2-specific CD8+ T cells (CD69+CD137+) in PBMC; type: cell-based, human
[2] = tested on: human T cells; experiment: T cell cytokine SFC response to cross-reactive CD4 epitopes (Tables 6-8); type: cell-based; settings: for Total SFC: cross-reactive CD4 non-spike SARS-CoV-2 epitopes, all cytokines; for IFNg / IL5 / IL13: cross-reactive CD4 non-spike epitopes; for IFNg: IFNg spot forming cells; for IL5: IL5 spot forming cells; for IL13: IL13 spot forming cells
[3] = tested on: SARS-CoV-2-specific CD4+ T cells (OX40+CD137+) in PBMC; type: cell-based, human; settings: CD4+ T cell epitopes identified by AIM assay; for Magnitude by # of responding donors: sum of response per responding donor
[4] = percent of tested donors responding
[5] = total response summed over donors

Row | Substance | Frequency of response (%) ([3]; share of donors responding) | Magnitude by # of responding donors [3] | Sum of response ([3]; total response) | further results
1 | KAYNVTQAF | – | – | – | Frequency of positive response [1]: 50 and 33
2 | VTYVPAQEK | – | – | – | Frequency of positive response [1]: 33 and 25; Magnitude of response [1]: 435 and 235; Sum of response [1]: 435 and 235
3 | 820 (EEIAIILASFSASTS) [compound 820] | – | – | – | Total SFC [2]: 13813 SFC; IFNg [2]: 7773; IL5 [2]: 1587; IL13 [2]: 1507
4 | AAISDYDYYR | – | – | – | Frequency of positive response [1]: 100; Magnitude of response [1]: 290; Sum of response [1]: 290
5 | 846 (YIINLIIKNLSKSLT) [compound 846] | – | – | – | Total SFC [2]: 1393 SFC; IFNg [2]: 1283; IL5 [2]: 0; IL13 [2]: 0
6 | 806 (SEETGTLIVNSVLLF) [compound 806] | – | – | – | Total SFC [2]: 267 SFC; IFNg [2]: 267; IL5 [2]: 0; IL13 [2]: 0
7 | AISDYDYYR | – | – | – | Frequency of positive response [1]: 100; Magnitude of response [1]: 173; Sum of response [1]: 173
8 | 245 (DDQIGYYRRATRRIR) [compound 245] | – | – | – | Total SFC [2]: 787 SFC; IFNg [2]: 400; IL5 [2]: 0; IL13 [2]: 120
9 | EILPVSMTK | – | – | – | Frequency of positive response [1]: 25 and 50
10 | 247 (LLLLDRLNQLESKMS) [compound 247] | – | – | – | Total SFC [2]: 1053 SFC; IFNg [2]: 1053; IL5 [2]: 0; IL13 [2]: 0
11 | RLQSLQTY | – | – | – | Frequency of positive response [1]: 33; Magnitude of response [1]: 142; Sum of response [1]: 142
12 | 848 (VKHVYQLRARSVSPK) [compound 848] | – | – | – | Total SFC [2]: 3640 SFC; IFNg [2]: 2947; IL5 [2]: 227; IL13 [2]: 0
13 | 248 (PSGTWLTYTGAIKLD) [compound 248] | – | – | – | Total SFC [2]: 1227 SFC; IFNg [2]: 947; IL5 [2]: 0; IL13 [2]: 0
14 | YKTFPPTEPK | – | – | – | Frequency of positive response [1]: 50; Magnitude of response [1]: 139; Sum of response [1]: 139
15 | EPVLKGVKL | – | – | – | Frequency of positive response [1]: 20; Magnitude of response [1]: 313; Sum of response [1]: 313
16 | 807 (LAILTALRLCAYCCN) [compound 807] | – | – | – | Total SFC [2]: 1800 SFC; IFNg [2]: 1760; IL5 [2]: 0; IL13 [2]: 0
17 | 246 (DAALALLLLDRLNQL) [compound 246] | – | – | – | Total SFC [2]: 3813 SFC; IFNg [2]: 3520; IL5 [2]: 0; IL13 [2]: 0
18 | KTFPPTEPKKDKKK | – | – | – | Frequency of positive response [1]: 50; Magnitude of response [1]: 122; Sum of response [1]: 122
19 | 849 (LYSPIFLIVAAIVFI) [compound 849] | – | – | – | Total SFC [2]: 520 SFC; IFNg [2]: 400; IL5 [2]: 0; IL13 [2]: 0
20 | 847 (MKIILFLALITLATC) [compound 847] | – | – | – | Total SFC [2]: 373 SFC; IFNg [2]: 293; IL5 [2]: 0; IL13 [2]: 0

Row | Substance | Frequency of response (%) ([3]; share of donors responding) | Magnitude by # of responding donors [3] | Sum of response ([3]; total response) | further results
21 | YQDVNCTEV | – | – | – | Frequency of positive response [1]: 50; Magnitude of response [1]: 243; Sum of response [1]: 243
22 | RENNRVVISSDVLVN | 33% | 170 | 170 | –
23 | WNSNNLDSKVGGNYN | 9% | 101 | 101 | –
24 | LIFLWLLWPVTLACF | 8% | 1194 | 1194 | –
25 | LTQYNRYLALYNKYK | 8% | 638 | 638 | –
26 | GSSGVVNPVMEPIYD | 7% | 186 | 186 | –
27 | HTTDPSFLGR | – | – | – | Frequency of positive response [1]: 50; Magnitude of response [1]: 312; Sum of response [1]: 312
28 | VNNSYECDIPIGAGI | 11% | 398 | 398 | –
29 | IQWMVMFTPLVPFWI | 8% | 603 | 603 | –
30 | NAPRITFGGPSDSTG | 6% | 259 | 259 | –
31 | AIAMACLVGLMWLSY | 8% | 151 | 151 | –
32 | LYIIKLIFLWLLWPV | 13% | 199 | 397 | –
33 | QPYRVVVLSFELLHA | 7% | 183 | 183 | –
34 | LMIERFVSLAIDAYP [SEQ ID NO 259] | – | 388 | – | Frequency of response (%) [3, 4]: 36%; Sum of response [3, 5]: 1941
35 | ASRELKVTFFPDLNG | 15% | 162 | 324 | –
36 | NKDGIIWVATEGALN | 29% | 437 | 1747 | –
37 | LLLLDRLNQLESKMS [SEQ ID NO 247] | 21% | 581 | 1742 | –
38 | CCHLAKALNDFSNSG | 8% | 111 | 111 | –
39 | PLIELCVDEAGSKSP | 18% | 171 | 341 | –
40 | AYSNNSIAIPTNFTI | – | 112 | – | Frequency of response (%) [3, 4]: 8%; Sum of response [3, 5]: 112

Row | Substance | Frequency of response (%) ([3]; share of donors responding) | Magnitude by # of responding donors [3] | Sum of response ([3]; total response) | further results
41 | CPFGEVFNATRFASV | – | 108 | – | Frequency of response (%) [3, 4]: 9%; Sum of response [3, 5]: 108
42 | SEPVLKGVKL | – | – | – | Frequency of positive response [1]: 40; Magnitude of response [1]: 251; Sum of response [1]: 501
43 | YADSFVIRGDEVRQI | 8% | 160 | 160 | –
44 | LLWPVTLACFVLAAV | 17% | 260 | 520 | –
45 | MAAYVDNSSLTIKKP | 7% | 185 | 185 | –
46 | GTILTRPLLESELVI | 17% | 161 | 322 | –
47 | VNARLRAKHYVYIGD | 8% | 116 | 116 | –
48 | SVLHSTQDLFLPFFS | 15% | 305 | 609 | –
49 | EFVFKNIDGYFKIYS | 18% | 336 | 672 | –
50 | KNTQEVFAQVKQIYK | 8% | 125 | 125 | –
51 | QELGKYEQYIKWPWY | 8% | 768 | 768 | –
52 | ALLAVFQSASKIITL [SEQ ID NO 249] | 9% | 178 | 178 | –
53 | VFAQVKQIYKTPPIK | – | 268 | – | Frequency of response (%) [3, 4]: 8%; Sum of response [3, 5]: 268
54 | FIASFRLFARTRSMW | 8% | 353 | 353 | –
55 | EKSNIIRGWIFGTTL | 9% | 299 | 299 | –
56 | PDLNGDVVAIDYKHY | 15% | 215 | 430 | –
57 | RRGPEQTQGNFGDQE | 8% | 518 | 518 | –
58 | QEPKLGSLVVRCSFY | 9% | 124 | 124 | –
59 | AAEASKKPRQKRTAT | 23% | 179 | 537 | –
60 | KLNDLCFTNVYADSF | 8% | 130 | 130 | –
